Data: patent US20100204313A1, “Modulation of nerve pain activity by resiniferatoxin and uses thereof” (priority 2007, published 2010)
“Also recorded” adds a separate entry of the source.

Columns and labels:
TRPV1 [1] = molecular target: T1, TRPV1 (Rattus norvegicus, UniProt O35433); parameters: host or cells: living rats (sensory neurons), TNBS chronic pancreatitis model; details: systemic administration, chronic pancreatitis; cited from earlier work
[2] = system: transient receptor potential vanilloid type-1 on gastric branches of dichotomous gastropancreatic nerves; assay: Pancreatic edema (water content) after intragastric infusion with pyloric ligation; format: in vivo; details: intragastric infusion of 1.2 ml of 1.6 μM after pyloric ligation; pancreas harvested 30 minutes later
Method: Capsaicin was infused into the stomach after pyloric ligation and 30 minutes later the pancreas was harvested and water content was measured.
Next, the functional correlate of this anatomical convergence was determined. It was hypothesized that intragastric capsaicin will activate transient receptor potential vanilloid type-1 on gastric branches of dichotomous gastropancreatic nerves and via an axonal reflex result in edema of the pancreas. After pyloric ligation, intragastric infusion of 1.2 ml of 1.6 μM capsaicin was followed 30 minutes later by harvesting of the pancreas and measurement of water content.

nociceptors = details: functional denervation of the pancreas; cited from earlier work
TRPV1 [3] = molecular target: T2, TRPV1 (Mus musculus, UniProt Q704Y3); details: mice, cited from earlier work
T2 construct: capsazepine, a selective TRPV1 antagonist, can reduce cerulein-induced pancreatitis in mice; host or cells: living mice, cerulein-induced pancreatitis

gastropancreatic nerves [4] = system: gastropancreatic nerves
Method: Capsaicin dose was 0.05 mg/0.3 ml in 40% ethanol for each group (n=8 rats/group).
Transient receptor potential vanilloid type-1 activation on the gastric side of gastropancreatic nerves can trigger axonal reflexes. Based on the known interaction between alcohol and transient receptor potential vanilloid type-1, it is possible that intragastric ethanol might also stimulate these nerves. […] At the same time, there was an intra-pancreatic canula in place and recording electrodes positioned around nerve fibers in the greater splanchnic nerve that were responsive to mechanical stimulation of the pancreas. Five minutes after intragastric ethanol, capsaicin was infused into the pancreatic duct.

nocifensive behaviors = details: 20% ethanol 1.6 gm/kg 3 times a day for 3 days; current 2, 5 and 10 mA; vs saline TNBS rats; P<0.001
Method: Increasing amounts of electrical current were applied to the pancreas through a previously implanted electrode and the total number of nocifensive behaviors was recorded.
Control TNBS rats received an equal volume of normal saline. The next day the rats were tested for their behavioral response for pain by administering successive application of electrical current at 2, 5 and 10 mA for 5 minutes through a pair of electrodes implanted in the pancreas at the time of TNBS administration.

TRPV1 [5] = molecular target: T1, TRPV1; details: in vitro, cited from earlier work
TRPV1 [6] = details: various tissues, capsazepine-sensitive; cited from earlier work
guinea pig bronchi = details: ex-vivo; sensitive to TRPV1 and tachykinin receptor blockade; cited from earlier work
guinea pig airways = details: intravenous 221 mg/kg or intragastric 790 mg/kg; capsazepine-sensitive; cited from earlier work
gastropancreatic nerves [7] = assay: Afferent nerve signaling to colorectal distention after intragastric resiniferatoxin; format: in vivo; details: rat stomach, 4 hours after intragastric resiniferatoxin vs baseline
Method: The top row represents the baseline response. Note the near complete absence of responses 4 hours after intragastric resiniferatoxin.
Resiniferatoxin is the principal active ingredient in the classic drug Euphorbium, the air-dried latex (resin) of the cactus-like plant Euphorbia resinifera. It is an ultra-potent analog of capsaicin and local application causes desensitization without prior excitation of afferent nerves that lasts for several weeks (Neubert et al, 2003; Kissin et al, 2002; Xu et al, 1997; Craft et al, 1995; Avelino et al, 1999; Acs et al, 1997; Abdel-Salam et al, 1994).

gastric emptying = assay: Gastric emptying of solid foods after local instillation; format: in vivo, rat; details: 100 nM/kg, vs control
Method: These experiments were done in male rats. Resiniferatoxin was instilled at 100 nM/kg body weight, 0.6 microgm/ml, into either the stomach or jejunum. Controls received saline in the stomach. Five weeks later gastric emptying of solid foods was measured. […] The combination of faster emptying and anti-nauseant effect makes it a very appropriate treatment for gastroparesis.

afferent nerves = details: desensitization of afferent nerves; cited from earlier work

T1 sequence (O35433 whole entry, the tested form may be a part): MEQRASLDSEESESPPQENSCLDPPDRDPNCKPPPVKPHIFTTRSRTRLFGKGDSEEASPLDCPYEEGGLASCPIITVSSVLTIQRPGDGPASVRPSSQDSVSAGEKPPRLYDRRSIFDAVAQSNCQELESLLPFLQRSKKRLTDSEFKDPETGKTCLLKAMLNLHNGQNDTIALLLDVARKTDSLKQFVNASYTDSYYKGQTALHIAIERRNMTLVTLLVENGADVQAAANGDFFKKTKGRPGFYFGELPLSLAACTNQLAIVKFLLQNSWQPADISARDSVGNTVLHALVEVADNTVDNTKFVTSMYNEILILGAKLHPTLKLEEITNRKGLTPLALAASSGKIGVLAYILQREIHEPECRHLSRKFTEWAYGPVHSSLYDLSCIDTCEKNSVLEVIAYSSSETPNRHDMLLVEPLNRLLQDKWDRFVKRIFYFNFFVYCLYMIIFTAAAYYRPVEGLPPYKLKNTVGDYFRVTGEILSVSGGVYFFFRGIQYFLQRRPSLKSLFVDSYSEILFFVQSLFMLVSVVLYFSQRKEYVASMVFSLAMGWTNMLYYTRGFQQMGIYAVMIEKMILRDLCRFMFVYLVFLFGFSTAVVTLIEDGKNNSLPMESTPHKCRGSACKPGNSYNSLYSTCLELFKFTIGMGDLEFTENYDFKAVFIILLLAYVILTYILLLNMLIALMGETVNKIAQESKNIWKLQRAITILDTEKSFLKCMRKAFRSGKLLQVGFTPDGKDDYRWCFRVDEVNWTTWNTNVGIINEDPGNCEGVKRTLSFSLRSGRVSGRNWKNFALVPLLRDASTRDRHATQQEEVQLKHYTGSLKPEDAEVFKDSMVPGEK
T2 sequence (Q704Y3 whole entry): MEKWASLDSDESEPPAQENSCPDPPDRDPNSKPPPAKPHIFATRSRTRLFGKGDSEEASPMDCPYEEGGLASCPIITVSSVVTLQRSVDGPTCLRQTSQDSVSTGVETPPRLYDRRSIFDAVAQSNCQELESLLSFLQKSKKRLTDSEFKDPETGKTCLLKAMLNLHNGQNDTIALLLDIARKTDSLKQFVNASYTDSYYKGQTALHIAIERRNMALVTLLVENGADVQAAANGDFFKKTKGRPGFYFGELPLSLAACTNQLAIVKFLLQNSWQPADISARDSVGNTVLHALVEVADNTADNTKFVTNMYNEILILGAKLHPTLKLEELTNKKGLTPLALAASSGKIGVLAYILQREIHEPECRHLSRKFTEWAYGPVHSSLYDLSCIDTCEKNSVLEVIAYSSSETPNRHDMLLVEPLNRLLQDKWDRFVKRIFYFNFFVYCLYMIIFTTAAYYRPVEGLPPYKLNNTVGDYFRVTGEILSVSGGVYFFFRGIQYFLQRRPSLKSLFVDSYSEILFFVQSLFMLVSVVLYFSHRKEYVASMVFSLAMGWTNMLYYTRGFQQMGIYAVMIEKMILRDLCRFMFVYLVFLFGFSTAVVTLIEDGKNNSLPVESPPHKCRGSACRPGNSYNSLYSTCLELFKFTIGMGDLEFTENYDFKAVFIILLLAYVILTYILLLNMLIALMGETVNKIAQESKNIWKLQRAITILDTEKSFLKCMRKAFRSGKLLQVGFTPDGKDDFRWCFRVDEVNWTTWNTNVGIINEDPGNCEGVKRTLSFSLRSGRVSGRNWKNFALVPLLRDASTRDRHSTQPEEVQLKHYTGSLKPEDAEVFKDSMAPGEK

## COc1cccc(NC(=O)/C=C/c2ccc(Cl)cc2)c1 [SB-366791]
TRPV1 [1]
  pancreatic pain behavioral response: markedly reduced

## COc1cc(CNC(=O)CCCC/C=C/C(C)C)ccc1O [capsaicin]
[2]
  pancreatic edema (water content): causes pancreatic edema
nociceptors
  acute experimental pancreatitis: significant attenuation

## Oc1cc2c(cc1O)CN(C(=S)NCCc1ccc(Cl)cc1)CCC2 [capsazepine]
TRPV1 [3]; cerulein-induced pancreatitis
  NK1R endocytosis in acinar cells (surrogate marker for SP release): reduction
TRPV1 [3]
  cerulein induced pancreatitis: attenuate

## CCO [ethanol]
Gastropancreatic nerves [4]; intragastric ethanol five minutes before capsaicin into pancreatic duct, vs intragastric saline, P<0.05, n=8 rats/group
  multi-unit spike potentials after intra-pancreatic capsaicin: significant increase
Gastropancreatic nerves [4]; intragastric via orogastric lavage after pyloric ligation, before capsaicin
  gastropancreatic nerve activity, ethanol by itself: did not increase
Nocifensive behaviors
  number of nocifensive behaviors: increased the number of nocifensive behaviors significantly
TRPV1 [5]; trigeminal and dorsal root ganglia neurons
  TRPV1 stimulation, capsazepine-sensitive calcium response: directly stimulate
TRPV1 [5]
  sensitization of dorsal root ganglia neurons to the effects of capsaicin: sensitize
TRPV1 [6]
  release of substance P: induce the release
Guinea pig bronchi
  contractions of bronchi: caused contractions
Guinea pig airways
  broncho-constriction: caused broncho-constriction
  plasma extravasation in the airways: increased plasma extravasation

## C=C(C)[C@]12C[C@@H](C)[C@@]34O[C@](Cc5ccccc5)(O[C@@H]1[C@@H]3C=C(COC(=O)Cc1ccc(O)c(OC)c1)C[C@]1(O)C(=O)C(C)=C[C@@H]41)O2 [resiniferatoxin]
Gastropancreatic nerves [7]
  afferent nerve signaling to colorectal distention: near complete attenuation; also recorded: nearly complete attenuation
Gastric emptying; instilled into the jejunum five weeks prior, P=0.04, n=4
  percentage of gastric emptying after 3 hours: significant increase
Gastric emptying; instilled into the stomach five weeks prior, P=0.01, n=4 rats
  percentage of gastric emptying after 3 hours: significant increase
Afferent nerves
  potency relative to capsaicin: 200 times
nociceptors
  acute experimental pancreatitis: significant attenuation
